From patent US12378210B2, “Pharmaceutical composition comprising tizoxanide and pharmaceutical use thereof” (BEIJING JUNKE HUAYUAN MED TECH CO., LTD., priority 2020, dated 2025)
Where “and” joins values, the source holds several entries; their conditions need not be identical. Equal entries are not always repeated. Structures can show the parent of a compound that is named as a salt. Where two headings read alike, the source gives them in different places.

What was measured:
[1] = set-up: species or system SD rats; details: male, SD, rat, in vivo, po
Protocol: 34.75 mg of nitazoxanide was added to 10 mL of 0.5% sodium carboxymethylcellulose solution, and the mixture was mixing homogeneously for later use; 41.67 mg of tizoxanide choline salt of formula (I) prepared in Example 2 was added to 10 mL of 0.5% sodium carboxymethylcellulose solution, and the mixture was mixed homogeneously for later use; 30 mg of tizoxanide was added to 5 mL of 0.5% sodium carboxymethylcellulose solution, followed by addition of 40% aqueous choline hydroxide solution, and the mixture was mixed homogeneously, and then added with 0.5% sodium carboxymethyl cellulose solution to a final volume of 10 mL to obtain a mixture of tizoxanide and choline for later use. […] Provided were male SD rats weighing 180 g to 220 g, 3 rats each group; all animals were fasted for 12 h prior to administration. The rats were separately administered intragastrically with the solution of the nitazoxanide, the solution of the tizoxanide choline salt of formula (I) or the mixture of tizoxanide and choline described above at a dose of 10 mL/kg each. […] The collected blood was added with sodium heparin for anticoagulation, followed by centrifugation to separate plasma, and the plasma was storing at −80° C. for determination. The content of tizoxanide in plasma was determined by LC-MS/MS (instrument: LC-MS/MS-19, TQ5500 Triple quad); internal Standard (IS) was tolbutamide; mass spectrum conditions: an electrospray ion source and a negative ion multiple reaction detection (Tizoxanide: […] ACQUITY UPLC CORTECS T3, 2.7 μm (2.1×100 mm); column temperature was 40° C.; flow rate was 0.6 mL/min. The pharmacokinetic parameters were calculated by utilizing WinNonlin according to the plasma concentration data at different time points. The results are shown in Table 1: […]

DHBV = experiment: Evaluation of in vivo anti-hepatitis B virus effect (serum DHBV DNA, dot-blot hybridization); set-up: species or system sheld ducks (Tadorna); details: intragastric once daily
Protocol: The sheld ducks (Tadorna) with vertical transmission infection and positive DHBV DNA were randomly grouped, 8 sheld ducks each group. […] Blood was collected intravenously prior to administration (T0) and 7 days (T7), 14 days (T14), 21 days (T21) and 28 days ([…]) after administration, and the serum was separated and frozen at -70° C. for determination. Determination of DHBV DNA content in serum by using dot-blot molecular hybridization was as follows: the duck serum described above was taken, spots were simultaneously formed on detection films for each batch, the change of the DHBV DNA level in the duck serum was determined, the DHBV DNA probe was labeled by ^32P according to the method of the instruction of the nick translation kit, and a duck serum dot-blot experiment was performed.

[2] = tested on: influenza A virus mouse lung adaptive strain A/PR/8/34; type: in vivo, Kunming mice
[3] = in vivo, po; cited from earlier work
[4] = 200 mg/kg active ingredient basis, T0 (prior to administration)
[5] = 200 mg/kg active ingredient basis, T7 (7 days)
[6] = 200 mg/kg active ingredient basis, T14 (14 days)
[7] = 200 mg/kg active ingredient basis, T21 (21 days)
[8] = 200 mg/kg active ingredient basis, T28 (28 days)

Row | SMILES | AUC(0-t) [1] | AUC(0-∞) [1] | Cmax [1] | T1/2 [1] | Tmax [1] | OD490 value (DHBV; 100 mg/kg active ingredient basis, T0 (prior to administration)) | OD490 value (DHBV; 100 mg/kg active ingredient basis, T7 (7 days)) | OD490 value (DHBV; 100 mg/kg active ingredient basis, T14 (14 days)) | OD490 value (DHBV; 100 mg/kg active ingredient basis, T21 (21 days)) | OD490 value (DHBV; 100 mg/kg active ingredient basis, T28 (28 days)) | OD490 value (DHBV; [4]) | OD490 value (DHBV; [5]) | OD490 value (DHBV; [6]) | OD490 value (DHBV; [7]) | OD490 value (DHBV; [8]) | Survival rates ([2]; mouse, in vivo) | Survival rates ([2]; 50 mg/kg active ingredient basis, intragastric 2 times daily for 5 days, […], observed 14 days) | Survival rates ([2]; 100 mg/kg active ingredient basis, intragastric 2 times daily for 5 days, […], observed 14 days) | original form of nitazoxanide in blood [3]
1 | O=C(Nc1ncc([N+](=O)[O-])s1)c1ccccc1O [Tizoxanide choline salt of formula (I), tizoxanide choline salt] | 2070.01 ng·h/mL | 2280.30 ng·h/mL | 837.16 ng/mL | 2.53 h | 0.25 h | 1.47 ± 0.20 | 0.43 ± 0.18**ΔΔ | 0.39 ± 0.34**ΔΔ | 0.34 ± 0.25**ΔΔ | 0.53 ± 0.37**ΔΔ | 0.96 ± 0.47 | 0.15 ± 0.08**ΔΔ | 0.10 ± 0.05**ΔΔ | 0.07 ± 0.04**ΔΔ | 0.27 ± 0.17**ΔΔ | 9/10 and 3/10 |  |  | 
2 | CC(=O)Oc1ccccc1C(=O)Nc1ncc([N+](=O)[O-])s1 [Nitazoxanide, o-N-(5-nitrothiazol-2-yl)carbamoyl-phenol-acetate, reference compound] | 1325.50 ng·h/mL | 1327.91 ng·h/mL | 380.55 ng/mL | 0.65 h | 2.00 h |  |  |  |  |  | 1.67 ± 0.11 | 1.37 ± 0.27 | 1.19 ± 0.51 | 0.72 ± 0.38**ΔΔ | 0.72 ± 0.48**ΔΔ |  | 2/10 | 7/10 | undetectable
